Measurements from ChEMBL document CHEMBL5537136 (J Med Chem, 2024).
Activity calls are given as the source filed them. No cut-off for these calls is given here.

Key:
[1] = biological target: T1, Poly [ADP-ribose] polymerase tankyrase-2 (Homo sapiens, UniProt Q9H2K2); assay: Inhibition of TNKS2 (unknown origin) measured after 1 hr incubation by microplate reader assay
T1 sequence (Q9H2K2 whole entry): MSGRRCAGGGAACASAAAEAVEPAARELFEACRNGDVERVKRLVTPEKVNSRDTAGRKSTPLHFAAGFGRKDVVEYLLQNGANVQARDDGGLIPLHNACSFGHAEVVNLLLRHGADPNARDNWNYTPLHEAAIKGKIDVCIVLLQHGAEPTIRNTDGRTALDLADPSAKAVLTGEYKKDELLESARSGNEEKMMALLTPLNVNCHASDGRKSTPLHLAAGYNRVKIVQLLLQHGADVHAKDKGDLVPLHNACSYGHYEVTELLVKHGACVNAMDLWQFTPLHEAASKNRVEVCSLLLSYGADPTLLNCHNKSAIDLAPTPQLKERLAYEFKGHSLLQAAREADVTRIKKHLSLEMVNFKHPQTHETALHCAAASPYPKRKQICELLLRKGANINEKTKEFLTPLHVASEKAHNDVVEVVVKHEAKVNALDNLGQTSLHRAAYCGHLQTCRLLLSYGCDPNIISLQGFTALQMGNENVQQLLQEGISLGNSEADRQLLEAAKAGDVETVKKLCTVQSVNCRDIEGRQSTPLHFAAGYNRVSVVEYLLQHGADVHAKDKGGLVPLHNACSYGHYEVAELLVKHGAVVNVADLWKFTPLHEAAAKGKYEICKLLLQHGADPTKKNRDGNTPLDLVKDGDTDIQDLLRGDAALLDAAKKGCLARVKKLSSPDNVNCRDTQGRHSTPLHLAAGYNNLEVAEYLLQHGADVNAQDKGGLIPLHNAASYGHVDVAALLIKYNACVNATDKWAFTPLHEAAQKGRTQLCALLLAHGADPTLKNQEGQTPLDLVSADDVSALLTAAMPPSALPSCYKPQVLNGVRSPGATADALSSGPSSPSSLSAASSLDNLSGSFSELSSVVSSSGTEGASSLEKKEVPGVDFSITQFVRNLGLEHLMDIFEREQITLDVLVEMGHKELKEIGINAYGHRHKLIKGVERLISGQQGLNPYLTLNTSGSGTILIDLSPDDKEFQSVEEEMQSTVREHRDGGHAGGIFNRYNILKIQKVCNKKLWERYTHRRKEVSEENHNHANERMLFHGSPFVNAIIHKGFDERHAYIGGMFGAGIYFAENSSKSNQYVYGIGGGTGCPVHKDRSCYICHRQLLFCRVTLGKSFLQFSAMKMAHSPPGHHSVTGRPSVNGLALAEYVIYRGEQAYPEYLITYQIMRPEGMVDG

[2] = biological target: T2, Protein mono-ADP-ribosyltransferase TIPARP (Mus musculus) (UniProt Q8C1B2); assay: Inhibition of PARP7 in mouse CT26 cells assessed as increase in TBK1 phosphorylation incubated for 3 days by Western blot analysis; format: cell-based; settings: dose 0.14-4 µM, time 3.0 day
T2 sequence (whole entry): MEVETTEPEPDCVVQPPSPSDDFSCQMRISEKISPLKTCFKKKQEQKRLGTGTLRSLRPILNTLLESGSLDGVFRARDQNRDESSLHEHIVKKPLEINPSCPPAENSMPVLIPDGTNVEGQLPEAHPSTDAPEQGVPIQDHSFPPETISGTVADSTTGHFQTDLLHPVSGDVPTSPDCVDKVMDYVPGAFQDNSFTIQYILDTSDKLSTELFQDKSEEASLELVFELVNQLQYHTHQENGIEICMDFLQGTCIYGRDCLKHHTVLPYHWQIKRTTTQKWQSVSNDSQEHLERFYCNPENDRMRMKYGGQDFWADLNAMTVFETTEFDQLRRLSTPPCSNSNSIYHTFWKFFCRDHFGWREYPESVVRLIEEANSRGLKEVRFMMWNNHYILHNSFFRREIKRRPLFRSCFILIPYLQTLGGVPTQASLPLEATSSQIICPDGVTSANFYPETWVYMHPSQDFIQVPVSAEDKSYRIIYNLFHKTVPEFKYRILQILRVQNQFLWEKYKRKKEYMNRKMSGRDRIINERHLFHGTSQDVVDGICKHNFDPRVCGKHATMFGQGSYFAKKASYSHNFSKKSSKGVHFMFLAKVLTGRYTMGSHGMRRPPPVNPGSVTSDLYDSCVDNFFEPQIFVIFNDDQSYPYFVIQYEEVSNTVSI

[3] = biological target: T2, Protein mono-ADP-ribosyltransferase TIPARP (Mus musculus); assay: Inhibition of PARP7 in mouse CT26 cells assessed as increase in STAT1 phosphorylation incubated for 3 days by Western blot analysis; format: cell-based; settings: dose 0.14-4 µM, time 3.0 day
Cytochrome P450 2C9 = Cytochrome P450 2C9 (Homo sapiens, UniProt P11712); assay: Inhibition of CYP2C9 (unknown origin); format: ADME
Cytochrome P450 2C9, sequence (P11712 whole entry): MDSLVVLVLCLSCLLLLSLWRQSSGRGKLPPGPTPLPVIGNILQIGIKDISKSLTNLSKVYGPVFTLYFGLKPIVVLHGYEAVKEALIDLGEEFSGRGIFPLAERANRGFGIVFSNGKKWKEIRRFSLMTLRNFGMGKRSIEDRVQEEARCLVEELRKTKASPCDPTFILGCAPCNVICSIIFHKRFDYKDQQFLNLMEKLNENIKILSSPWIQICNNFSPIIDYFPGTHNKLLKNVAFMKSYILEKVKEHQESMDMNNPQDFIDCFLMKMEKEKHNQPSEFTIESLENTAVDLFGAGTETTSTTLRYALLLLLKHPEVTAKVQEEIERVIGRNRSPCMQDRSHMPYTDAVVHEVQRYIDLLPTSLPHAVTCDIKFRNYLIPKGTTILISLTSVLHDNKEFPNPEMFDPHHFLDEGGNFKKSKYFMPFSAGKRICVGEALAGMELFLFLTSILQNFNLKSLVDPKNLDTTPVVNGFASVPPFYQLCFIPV

CYP3A4/5 = CYP3A4/5 (Homo sapiens, UniProt P08684+P20815); assay: Inhibition of CYP3A4/5 (unknown origin); format: ADME, protein assay
[4] = Cmax in ICR mouse at 1 mg/kg, iv measured upto 24 hrs by LC-MS/MS analysis; format: ADME, organism-based; settings: in vivo
[5] = C0 in ICR mouse at 1 mg/kg, iv measured upto 24 hrs by LC-MS/MS analysis; format: ADME, organism-based; settings: in vivo
[6] = AUC (0 to infinity) in ICR mouse at 1 mg/kg, iv measured upto 24 hrs by LC-MS/MS analysis; format: ADME, organism-based; settings: in vivo
[7] = Apparent volume of distribution in ICR mouse at 1 mg/kg, iv measured upto 24 hrs by LC-MS/MS analysis; format: ADME, organism-based; settings: in vivo, read-out: Vz
[8] = Cmax in ICR mouse at 10 mg/kg, IG measured upto 24 hrs by LC-MS/MS analysis; format: ADME, organism-based; settings: in vivo, po
[9] = Acute toxicity in ICR mouse assessed as change in body weight at 1000 mg/kg, po measured after 7 days; format: organism-based; settings: in vivo, 168 h, time 7 day
CT26 [10] = assay: Antitumor activity in immunocompetent mouse CT26 cell bearing mouse model assessed as tumor growth inhibition at 25 mg/kg, IG treated twice a day measured after 14 days relative to control; format: functional; settings: CT26, po, 336 h, time 14 day, read-out: TGI
[11] = Toxicity in Balb/c mouse bearing mouse CT26 cells assessed as morphological changes in lung at 6.25 to 25 mg/kg, IG measured after 14 days by hematoxylin and eosin staining based assay; format: organism-based; settings: in vivo, po, 336 h, dose 6.25-25 mg/kg, time 14 day
[12] = Toxicity in Balb/c mouse bearing mouse CT26 cells assessed as body weight change at 6.25 to 25 mg/kg, IG measured after 14 days; format: organism-based; settings: in vivo, po, 336 h, dose 6.25-25 mg/kg, time 14 day
CT26 [13] = assay: Antitumor activity in immunocompetent mouse CT26 cell bearing Balb/c mouse model assessed as reduction in Ki-67 protein expression level in tumor tissue at 6.25 to 25 mg/kg, IG treated twice a day measured after 14 days; format: functional, organism-based; settings: dose lower 6.25 mg/kg, dose upper […], time 14.0 day

For `C[C@@H](C(=O)N1CCN(c2ncc(C(F)(F)F)cn2)CC1)n1cc2cccc(C(N)=O)c2n1`, the IC50 [1] was 0.694 µM, the inhibition [2] was “Dose-Dependent Effect” and the inhibition [3] was “Dose-Dependent Effect”. For the same compound, the IC50 (Cytochrome P450 2C9) was over 30 µM, the IC50 (CYP3A4/5) was over 30 µM and the Cmax [4] was 1360 ng/mL. It also gave a C0 at 24 h [5] of 1590 ng/mL, an AUC(0-inf) [6] of 1800 ng·h/mL and a Vd [7] of 0.978 L/kg. The Cmax [8] was 7350 ng/mL, the Activity [9] was “Non-Toxic” and the inhibition in vivo at 25 mg/kg (CT26 [10]) was 83%. The Activity [11] was “Non-Toxic”, the Activity [12] was “Non-Toxic” and the Activity (CT26 [13]) was “Active”.
